According to US11007503B2, “Systems and methods for a cooled nitric oxide generator” (The General Hospital Corporation, priority 2017, dated 2021):

Test system: rabbits with acute pulmonary hypertension

Structure (SMILES)	right ventricular systolic pressure (RVSP) after U46619 infusion (anesthetized rabbits, continuous infusion over 60 mins, RVSP increased from baseline 14±2 mmHg)	RVSP at one min after breathing NO (electrically generated NO (20, 40 or 80 ppm) produced on inspiration by prototype generator, 50% O2, RVSP 30 mmHg before NO breathing, FIG. 14) [mmHg]
CCCCC[C@H](O)/C=C/[C@@H]1[C@@H](C/C=C\CCCC(=O)O)[C@H]2CO[C@@H]1C2 [U46619]	28-30 mmHg	
[N]=O [NO, nitric oxide]		24
